Data on five compounds can be found in patent publication US6221867A, “4,5-pyrazinoxindoles” (Hoffmann-La Roche Inc., priority 1999, dated 2001).

This test deals with rat SAPK (isoform β) (Rattus norvegicus, UniProt P49187). The experiment in a line: SAPK FlashPlate Assay (inhibition of cJun phosphorylation). Type of test: biochemical. To be noted: for SAPK % Inhibition: at test concentration 0.5 μM, GST-cJun substrate, 33P-ATP. The method, then:
"IC50 " refers to the concentration of a particular 4,5-pyrazinoxindole required to inhibit 50% of cJun phosphorylation, which is a measure of inhibition of SAPK activity. IC50 can be measured, inter alia, using the assay described herein in Example 7, infra.
Human JNK is highly homologous to rat SAPK. To measure the inhibitory activity of test compounds, the compounds were tested in the rat SAPK assay. For the SAPK assay, purified GST-cJun (a chimeric protein containing cJun, a natural substrate of JNK) was coated on 96 well FlashPlates (New England Nuclear, Boston, Mass.). Purified rat SAPK (isoform β, Kyriakis et al. supra) was preincubated with preparations containing MEKK-1 and MKK4 for 30 minutes at 37° C. in assay buffer containing 25 mM HEPES, pH 7.5, 150 mM NaCl, 20 mM MgCl2, 2 mM DTT, 0.001% Tween 20, 1 μM ATP freshly added. In the preincubation step, MEKK-1 phosphorylates and activates MKK-4, which in turn phosphorylates and activates SAPK. The activated SAPK was then added to the cJun coated FlashPlates along with ^33 P-ATP (0.32 μCi per reaction) and test compounds. The plates were incubated for 30 minutes at 37° C., then washed with PBS, 0.01% Tween 20, and counted in the Topcount scintillation counter (Packard Instrument Co., Downers Grove, Ill.). Dilutions of compounds were tested in duplicate in each assay. The percent inhibition of cJun phosphorylation (a measure of inhibition of SAPK activity) was determined by the following formula: [formula]
where "test compound" refers to the average counts per minute of the test duplicates, "nonspecific" refers to the average counts per minute when no SAPK was added, and "total" refers to the average counts per minute when no compound was added.

Sequence of rat SAPK (isoform β) (P49187 whole entry, canonical isoform): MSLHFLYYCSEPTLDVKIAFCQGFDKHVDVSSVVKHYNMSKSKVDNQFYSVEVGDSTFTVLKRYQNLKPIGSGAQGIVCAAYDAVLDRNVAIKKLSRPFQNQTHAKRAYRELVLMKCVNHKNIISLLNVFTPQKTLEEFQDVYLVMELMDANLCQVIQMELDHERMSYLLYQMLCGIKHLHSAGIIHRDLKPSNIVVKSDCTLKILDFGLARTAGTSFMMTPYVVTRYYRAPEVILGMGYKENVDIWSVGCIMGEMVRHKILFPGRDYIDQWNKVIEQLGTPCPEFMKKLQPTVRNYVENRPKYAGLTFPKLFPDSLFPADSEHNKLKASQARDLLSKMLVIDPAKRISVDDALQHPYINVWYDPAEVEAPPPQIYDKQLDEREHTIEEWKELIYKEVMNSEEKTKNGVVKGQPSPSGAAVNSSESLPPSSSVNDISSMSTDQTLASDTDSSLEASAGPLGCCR

The term inhibition denotes the drop in the measured response relative to a control, in per cent. For `COc1cc[nH]c1/C=C1\C(=O)Nc2ccc3nc(C)c(C)nc3c21` [A, (Z)-7,9-Dihydro-2,3-dimethyl-9-[(3-methoxy-1H-pyrrol-2-yl)methylene]-8H-pyrrolo-[3,2-f]quinoxalin-8-one], for the setting “read-out: SAPK % Inhibition”, the inhibition at 0.1 µM was at least 50%.

On to `COc1cc[nH]c1/C=C1\C(=O)Nc2ccc3nc(-c4ccco4)c(-c4ccco4)nc3c21` [D, (Z)-7,9-Dihydro-2,3-di-(2-furanyl)-9-[(3-methoxy-1H-pyrrol-2-yl)methylene]-8H-pyrrolo[3,2-f]quinoxalin-8-one], for which the inhibition at 0.5 µM (read-out: SAPK % Inhibition) is at least 50%.

Turning to `COc1cc[nH]c1/C=C1\C(=O)Nc2ccc3nc4c(nc3c21)CCCC4` [E, (Z)-1,3,5,6,7,8-Hexahydro-3-[(3-methoxy-1H-pyrrol-2-yl)methylene]-2H-pyrrolo[3,2-a]phenazin-2-one], the inhibition at 0.1 µM (read-out: SAPK % Inhibition) was at least 50%.

For “(Z)-7,9-Dihydro-9-[(3-methoxy-1H-pyrrol-2-yl)methylene]-2-methyl-3-phenyl-8H-pyrrolo[3,2-f]quinoxalin-8-one and (Z)-7,9-dihydro-9-[(3-methoxy-1H-pyrrol-2-yl)methylene]-3-methyl-2-phenyl- 8H-pyrrolo[3,2-f]quinoxalin-8-one [C]”, the “SAPK % Inhibition” value is at least 50%.

As for “Mixture of (Z)-3-butyl-7,9-dihydro-9-[(3-methoxy-1H-pyrrol-2-yl)methylene]-2-methyl-8H-pyrrolo[3,2-f]quinoxalin-8-one and (Z)-2-butyl-7,9-dihydro-9-[(3-methoxy-1H-pyrrol-2-yl)methylene]-3-methyl-8H-pyrrolo[3,2-f]quinoxalin-8-one”, the “SAPK % Inhibition” value is at least 50%.
